Data taken from patent publication US10213427B2 (Incyte Corporation, priority 2010, dated 2019).

Biological target: FGFR3 enzyme (Millipore) (Homo sapiens (Human), UniProt P22607)
Assay: FGFR3 Enzymatic Assay
Type: biochemical
Conditions: FRET peptide phosphorylation, 140 μM ATP
In short: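 FGFR3 preincubated 5-10 min with serially diluted inhibitor in 50 mM HEPES pH 7.5, 10 mM MgCl2, 1 mM EGTA, 5 mM DTT, then reacted 1 h at 25 °C. Peptide phosphorylation detected by FRET; IC50 from variable-slope sigmoidal fit.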

Chain of FGFR3 enzyme (Millipore) (P22607 23-806): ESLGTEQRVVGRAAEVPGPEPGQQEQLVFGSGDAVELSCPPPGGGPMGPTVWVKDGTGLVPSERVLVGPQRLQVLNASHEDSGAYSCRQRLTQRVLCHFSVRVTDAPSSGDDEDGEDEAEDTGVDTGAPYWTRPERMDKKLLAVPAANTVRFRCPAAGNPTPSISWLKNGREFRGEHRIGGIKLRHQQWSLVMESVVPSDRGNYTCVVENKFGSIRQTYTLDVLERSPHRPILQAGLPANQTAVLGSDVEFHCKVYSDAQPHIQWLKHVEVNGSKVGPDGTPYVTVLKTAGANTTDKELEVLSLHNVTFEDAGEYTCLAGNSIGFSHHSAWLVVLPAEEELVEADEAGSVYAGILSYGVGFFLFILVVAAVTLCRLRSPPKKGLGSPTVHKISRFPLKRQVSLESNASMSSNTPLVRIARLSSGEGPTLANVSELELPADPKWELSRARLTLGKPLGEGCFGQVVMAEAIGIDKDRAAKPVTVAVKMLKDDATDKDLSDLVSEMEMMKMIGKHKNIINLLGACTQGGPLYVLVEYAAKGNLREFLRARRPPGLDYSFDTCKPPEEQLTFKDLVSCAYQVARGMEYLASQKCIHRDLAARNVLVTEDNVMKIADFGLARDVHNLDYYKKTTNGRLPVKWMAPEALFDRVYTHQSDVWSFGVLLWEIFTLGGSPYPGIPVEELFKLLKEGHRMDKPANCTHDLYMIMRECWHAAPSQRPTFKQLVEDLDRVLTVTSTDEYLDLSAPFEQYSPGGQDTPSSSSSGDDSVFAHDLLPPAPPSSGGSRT

Work on `CC(C(=O)N(C)C1CCOCC1)n1cc(-c2cnn3c(-c4cccc(NC(=O)NCC(F)(F)F)c4)cnc3c2)cn1` (stereo not shown) [Example 59, N-Methyl-N-(tetrahydro-2H-pyran-4-yl)-2-(4-{3-[3-({[(2,2,2-trifluoroethyl)amino]carbonyl}amino)phenyl]imidazo[1,2-b]pyridazin-7-yl}-1H-pyrazol-1-yl)propanamide] yielded an IC50 of under 10 nM.
For `O=C(NCC(F)(F)F)Nc1cccc(-c2cnc3cc(-c4cnn(C5CCN(C(=O)CC6CCCO6)CC5)c4)cnn23)c1` (stereo not shown) [Example 50, N-[3-(7-{1-[1-(tetrahydrofuran-2-ylacetyl)piperidin-4-yl]-1H-pyrazol-4-yl}imidazo[1,2-b]pyridazin-3-yl)phenyl]-N′-(2,2,2-trifluoroethyl)urea], the IC50 was under 10 nM.
`CC(C(=O)NC[C@@H]1CCCO1)c1ccc(-c2cnn3c(-c4cccc(NC(=O)NCC(F)(F)F)c4)cnc3c2)cc1` (stereo partly shown) [Example 100] was tested, and the IC50 was under 10 nM.
With `O=C(NCC(F)(F)F)Nc1cccc(-c2cnc3cc(-c4cnn(C5CCN(C(=O)C6CCOC6)CC5)c4)cnn23)c1` (stereo not shown) [Example 48, N-[3-(7-{1-[1-(tetrahydrofuran-3-ylcarbonyl)piperidin-4-yl]-1H-pyrazol-4-yl}imidazo[1,2-b]pyridazin-3-yl)phenyl]-N′-(2,2,2-trifluoroethyl)urea] the IC50 was under 10 nM.
For `N#CCC(=O)N1CCC(n2cc(-c3cnn4c(-c5cccc(NC(=O)NCC(F)(F)F)c5)cnc4c3)cn2)CC1` [Example 44, N-[3-(7-{1-[1-(Cyanoacetyl)piperidin-4-yl]-1H-pyrazol-4-yl}imidazo[1,2-b]pyridazin-3-yl)phenyl]-N′-(2,2,2-trifluoroethyl)urea], the IC50 was under 10 nM.
Molecule `CC(C(=O)N1CC(O)C1)c1ccc(-c2cnn3c(-c4cccc(NC(=O)NCC(F)(F)F)c4)cnc3c2)cc1` (stereo not shown) [Example 104, N-[3-(7-{4-[2-(3-Hydroxyazetidin-1-yl)-1-methyl-2-oxoethyl]phenyl}imidazo[1,2-b]pyridazin-3-yl)phenyl]-N′-(2,2,2-trifluoroethyl)urea] has an IC50 of under 10 nM.
`O=C(NCC(F)(F)F)Nc1cccc(-c2cnc3cc(-c4ccc(N5CCN(C(=O)N6CCCC6)CC5)nc4)cnn23)c1` [Example 53, N-[3-(7-{6-[4-(pyrrolidin-1-ylcarbonyl)piperazin-1-yl]pyridin-3-yl}imidazo[1,2-b]pyridazin-3-yl)phenyl]-N′-(2,2,2-trifluoroethyl)urea] showed an IC50 of under 10 nM.
With `O=C(NCC(F)(F)F)Nc1cccc(-n2cnc3cc(-c4cccc(C(=O)NCc5cccnc5)c4)ccc32)c1` [Example 5, N-(Pyridin-3-ylmethyl)-3-{1-[3-({[(2,2,2-trifluoroethyl)amino]carbonyl}amino)phenyl]-1H-benzimidazol-5-yl}benzamide] the IC50 was under 10 nM.
Work on `CC(C(=O)N[C@@H]1CCOC1)c1ccc(-c2cnn3c(-c4cccc(NC(=O)NCC(F)(F)F)c4)cnc3c2)cc1` (stereo partly drawn) [Example 103, N-[(3R)-Tetrahydrofuran-3-yl]-2-(4-{3-[3-({[(2,2,2-trifluoroethyl)amino]carbonyl}amino)phenyl]imidazo[1,2-b]pyridazin-7-yl}phenyl)propanamide] yielded an IC50 of under 10 nM.
With `O=C(NCC(F)(F)F)Nc1cccc(-c2cnc3cc(-c4cnn(C5CCN(C(=O)N6CCOCC6)CC5)c4)cnn23)c1` [Example 37, N-[3-(7-{1-[1-(morpholin-4-ylcarbonyl)piperidin-4-yl]-1H-pyrazol-4-yl}imidazo[1,2-b]pyridazin-3-yl)phenyl]-N′-(2,2,2-trifluoroethyl)urea] the IC50 was under 10 nM.
For `Cn1ccc(S(=O)(=O)N2CC(CC#N)(n3cc(-c4cnn5c(-c6cccc(NC(=O)NCC(F)(F)F)c6)cnc5c4)cn3)C2)n1` [Example 73, N-{3-[7-(1-{3-(Cyanomethyl)-1-[(1-methyl-1H-pyrazol-3-yl)sulfonyl]azetidin-3-yl}-1H-pyrazol-4-yl)imidazo[1,2-b]pyridazin-3-yl]phenyl}-N′-(2,2,2-trifluoroethyl)urea], the IC50 was under 10 nM.
`CC(C(=O)N(C)C)n1cc(-c2cnn3c(-c4cccc(NC(=O)NCC(F)(F)F)c4)cnc3c2)cn1` (stereo not shown) [Example 56, N,N-Dimethyl-2-(4-{3-[3-({[(2,2,2-trifluoroethyl)amino]carbonyl}amino)phenyl]imidazo[1,2-b]pyridazin-7-yl}-1H-pyrazol-1-yl)propanamide] showed an IC50 of under 10 nM.
Work on `O=C(NCC(F)(F)F)Nc1cccc(-c2cnc3cc(-c4cnn(C5CCN(C(=O)Nc6cccnc6)CC5)c4)cnn23)c1` [Example 38, N-Pyridin-3-yl-4-(4-{3-[3-({[(2,2,2-trifluoroethyl)amino]carbonyl}amino)phenyl]imidazo[1,2-b]pyridazin-7-yl}-1H-pyrazol-1-yl)piperidine-1-carboxamide] yielded an IC50 of under 10 nM.
`CNC(=O)Nc1cccc(-c2cnc3cc(-c4cccc(C(=O)NC(C)c5ccccc5F)c4)cnn23)c1` (stereo not shown) [Example 97, N-[1-(2-Fluorophenyl)ethyl]-3-[3-(3-{[(methylamino)carbonyl]amino}phenyl)imidazo[1,2-b]pyridazin-7-yl]benzamide] was tested, and the IC50 was over 25 nM.
In the case of `CC(C(=O)NCC1CCCO1)c1ccc(-c2ccc3c(c2)ncn3-c2cccc(NC(=O)NCC(F)(F)F)c2)cc1` (stereo not shown) [Example 18, N-(Tetrahydrofuran-2-ylmethyl)-2-(4-{1-[3-({[(2,2,2-trifluoroethyl)amino]carbonyl}amino)phenyl]-1H-benzimidazol-5-yl}phenyl)propanamide], the IC50 is reported as under 10 nM.
`CC(C(=O)N1CCC[C@H]1CO)c1ccc(-c2cnn3c(-c4cccc(NC(=O)NCC(F)(F)F)c4)cnc3c2)cc1` (stereo partly drawn) [Example 106, N-{3-[7-(4-{2-[(2S)-2-(Hydroxymethyl)pyrrolidin-1-yl]-1-methyl-2-oxoethyl}phenyl)imidazo[1,2-b]pyridazin-3-yl]phenyl}-N′-(2,2,2-trifluoroethyl)urea] was tested, and the IC50 was under 10 nM.
`CC(C(=O)N1CC(C#N)C1)n1cc(-c2cnn3c(-c4cccc(NC(=O)NCC(F)(F)F)c4)cnc3c2)cn1` (stereo not shown) [Example 72, N-[3-(7-{1-[2-(3-Cyanoazetidin-1-yl)-1-methyl-2-oxoethyl]-1H-pyrazol-4-yl}imidazo[1,2-b]pyridazin-3-yl)phenyl]-N′-(2,2,2-trifluoroethyl)urea] was tested, and the IC50 was under 10 nM.
Work on `N#CCC(c1ccco1)n1cc(-c2cnn3c(-c4cccc(NC(=O)NCC(F)(F)F)c4)cnc3c2)cn1` (stereo not shown) [Example 91, N-[3-(7-{1-[2-Cyano-1-(2-furyl)ethyl]-1H-pyrazol-4-yl}imidazo[1,2-b]pyridazin-3-yl)phenyl]-N′-(2,2,2-trifluoroethyl)urea] yielded an IC50 of under 10 nM.
`N#CC1(C(=O)N2CCC(n3cc(-c4cnn5c(-c6cccc(NC(=O)NCC(F)(F)F)c6)cnc5c4)cn3)CC2)CC1` [Example 45, N-{3-[7-(1-{1-[(1-Cyanocyclopropyl)carbonyl]piperidin-4-yl}-1H-pyrazol-4-yl)imidazo[1,2-b]pyridazin-3-yl]phenyl}-N′-(2,2,2-trifluoroethyl)urea] was tested, and the IC50 was under 10 nM.
